According to US11401271B2, “Fused heterocyclic compound, pyrazole-ring-containing fused heterocyclic compound, agricultural composition containing thereof, and method of using the composition” (SOUTH CHINA AGRICULTURAL UNIVERSITY, priority 2017, dated 2022):
Like-named read-outs stand apart in the source and are kept apart here.

Experiments:
Experiment in all cases: whole plant or invertebrate
Assay type in all cases: in vivo
[1] = system: Solenopsis invicta; settings: water test tube poison-feeding; for mortality at 100 ppm: Solenopsis invicta; for Solenopsis invicta Mortality (%) 100 ppm 24 h / Solenopsis invicta Mortality (%) 100 ppm 72 h / Solenopsis invicta Mortality (%) 24 h / Solenopsis invicta Mortality (%) 72 h: 100 ppm
Procedure, shortened: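 Fire ants fed compound by water test-tube poison-feeding at 100 ppm in aqueous 0.05% Tween-80/5% honey (from 10 g/L DMSO stock), kept at 25 °C. Live and dead ants counted at 24 and 72 h; mortality (%) calculated relative to live ants in the untreated control.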

[2] = system: Plutella xylostella; settings: for mortality at 500 ppm: Plutella xylostella, read-out: Plutella xylostella Mortality (%) 500 ppm; for Plutella xylostella Mortality (%) 500 ppm / Plutella xylostella Mortality (%): 2nd-instar larvae, leaf immersion feeding, 500 ppm
Procedure, shortened: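 Cabbage leaf discs dipped 5 s in compound at 500 ppm (0.05% Tween-80 aqueous), air-dried, fed to about 35 2nd-instar larvae at 28° C., triplicate. Dead larvae counted after 24 h; mortality (%) corrected against Tween-80 control.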

[3] = system: Spodoptera exigua; settings: for mortality at 500 ppm: Spodoptera exigua, 24 h, read-out: Spodoptera exigua Mortality (%) 500 ppm; for Spodoptera exigua Mortality (%) 500 ppm / Spodoptera exigua Mortality (%): 2nd-instar larvae, leaf immersion feeding, 500 ppm; for Spodoptera exigua Mortality (%) 500 ppm: 24 hours
Procedure, shortened: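 Cabbage leaf discs dipped 5 s in 500 ppm compound (0.05% Tween-80 aqueous), air-dried, fed to about 35 2nd-instar larvae at 28° C, three replicates. Deaths counted at 24 h; mortality corrected against Tween-80 control.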

[4] = system: Aphis craccivora; settings: for mortality at 500 ppm: Aphis craccivora, 24 h, read-out: Aphis craccivora Mortality (%) 500 ppm; for Aphis craccivora Mortality (%) 500 ppm / Aphis craccivora Mortality (%): wingless adults, 500 ppm; for Aphis craccivora Mortality (%) 500 ppm: impregnation method, 24 hours; for Aphis craccivora Mortality (%): immersion 5 seconds, counted after 24 hours
Procedure, shortened: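 Wingless adults feeding on bean sprouts were dipped with the sprouts for 5 s in 500 ppm compound in aqueous 0.05% Tween-80, air-dried, then held at 23° C. Dead aphids counted after 24 h, triplicate, with 0.05% Tween-80 as control. Mortality (%) = (control live − treated live)/control live × 100.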

[5] = 24 h, read-out: Solenopsis invicta Mortality (%) 100 ppm 24 h, 100 ppm, 24 h
[6] = 72 h, read-out: Solenopsis invicta Mortality (%) 100 ppm 72 h, 100 ppm, 72 h

## C=CCN(CC)c1cc2n(n1)-c1cnccc1C(F)(CC(F)(F)F)N2 (stereo not shown) [Compound A38]
[1]; [5]
  mortality at 100 ppm: 26%
[1]; [6]
  mortality at 100 ppm: 93%
[2]
  mortality at 500 ppm: 100%
[3]
  mortality at 500 ppm: 90%
[4]
  mortality at 500 ppm: 100%

## N#Cc1nn2c(c1[S+]([O-])C(F)(F)F)NC(Cl)(Cl)c1cc(C(F)(F)F)cnc1-2 (stereo not drawn) [a-44, 5,5-dichloro-7-trifluoromethyl-3-trifluoromethylsulfinyl-4,5-dihydropyrazole[1,5-α]quinazoline[3,2-e]pyridine-2-cyano]
[1]; 24 h
  Solenopsis invicta Mortality (%) 100 ppm 24 h: 15%
[1]; 72 h
  Solenopsis invicta Mortality (%) 100 ppm 72 h: 95%
[2]
  Plutella xylostella Mortality (%) 500 ppm: 100%
[3]
  Spodoptera exigua Mortality (%) 500 ppm: 95%
[4]
  Aphis craccivora Mortality (%) 500 ppm: 100%

## CCCCOC(=O)CC1(C(=O)OCCCC)Nc2c([S+]([O-])C(F)(F)F)c(C#N)nn2-c2c(Cl)cc(C(F)(F)F)cc21 (stereo not drawn) [d-72]
[1]; 24 h
  Solenopsis invicta Mortality (%) 24 h: 26%
[1]; 72 h
  Solenopsis invicta Mortality (%) 72 h: 76%
[2]
  Plutella xylostella Mortality (%): 90%
[3]
  Spodoptera exigua Mortality (%): 85%
[4]
  Aphis craccivora Mortality (%): 99%

## Cc1cc(-c2c(C#N)nn3c2NC(C(O)CO)(C(F)(F)F)c2cc(C(F)(F)F)cc(Cl)c2-3)c(C)o1 (stereo not shown) [Compound C54]
[1]; [5]
  mortality at 100 ppm: 17%
[1]; [6]
  mortality at 100 ppm: 84%
[2]
  mortality at 500 ppm: 77%
[3]
  mortality at 500 ppm: 78%
[4]
  mortality at 500 ppm: 87%

## CNC(=O)CC1Nc2c(OC(F)(F)F)c(C#N)nn2-c2c(Cl)cc(C(F)(F)F)cc21 (stereo not drawn) [d-133]
[1]; 24 h
  Solenopsis invicta Mortality (%) 24 h: 21%
[1]; 72 h
  Solenopsis invicta Mortality (%) 72 h: 95%
[2]
  Plutella xylostella Mortality (%): 70%
[3]
  Spodoptera exigua Mortality (%): 86%
[4]
  Aphis craccivora Mortality (%): 100%

## COC(=O)CC1(C(=O)OC)Nc2c(Cl)c(C#N)nn2-c2ncc(C(F)(F)F)cc21 (stereo not shown) [a-133]
[1]; 24 h
  Solenopsis invicta Mortality (%) 100 ppm 24 h: 24%
[1]; 72 h
  Solenopsis invicta Mortality (%) 100 ppm 72 h: 100%
[2]
  Plutella xylostella Mortality (%) 500 ppm: 100%
[3]
  Spodoptera exigua Mortality (%) 500 ppm: 100%
[4]
  Aphis craccivora Mortality (%) 500 ppm: 100%

## Nc1ccc2c(c1)-n1nc(C(F)(F)F)c(Br)c1NC2(C(F)(F)F)C(F)(F)F [Compound A11]
[1]; [5]
  mortality at 100 ppm: 34%
[1]; [6]
  mortality at 100 ppm: 100%
[2]
  mortality at 500 ppm: 100%
[3]
  mortality at 500 ppm: 100%
[4]
  mortality at 500 ppm: 100%

## N#Cc1nn2c(c1[S+]([O-])C(F)(F)F)NC(Cl)c1cc(C(F)(F)F)cnc1-2 (stereo not shown) [a-80]
[1]; 24 h
  Solenopsis invicta Mortality (%) 100 ppm 24 h: 10%
[1]; 72 h
  Solenopsis invicta Mortality (%) 100 ppm 72 h: 100%
[2]
  Plutella xylostella Mortality (%) 500 ppm: 91%
[3]
  Spodoptera exigua Mortality (%) 500 ppm: 85%
[4]
  Aphis craccivora Mortality (%) 500 ppm: 100%

## N#Cc1nn2c(c1[S+]([O-])C(F)(F)F)NC(C#N)(CC(F)(F)F)c1cc(C(F)(F)F)cc(Cl)c1-2 (stereo not drawn) [d-65]
[1]; 24 h
  Solenopsis invicta Mortality (%) 24 h: 24%
[1]; 72 h
  Solenopsis invicta Mortality (%) 72 h: 90%
[2]
  Plutella xylostella Mortality (%): 100%
[3]
  Spodoptera exigua Mortality (%): 100%
[4]
  Aphis craccivora Mortality (%): 100%

## C=CCN1c2c(C#N)c(SC)nn2-c2ccccc2C1(F)C(F)(F)F (stereo not shown) [Compound A34]
[1]; [5]
  mortality at 100 ppm: 28%
[1]; [6]
  mortality at 100 ppm: 97%
[2]
  mortality at 500 ppm: 96%
[3]
  mortality at 500 ppm: 100%
[4]
  mortality at 500 ppm: 100%

## COC(=O)CC1Nc2c([S+]([O-])C(F)(F)F)c(C(F)(F)F)nn2-c2cncc(Cl)c21 (stereo not shown) [b-88]
[1]; 24 h
  Solenopsis invicta Mortality (%) 24 h: 25%
[1]; 72 h
  Solenopsis invicta Mortality (%) 72 h: 100%
[2]
  Plutella xylostella Mortality (%): 100%
[3]
  Spodoptera exigua Mortality (%): 100%
[4]
  Aphis craccivora Mortality (%): 100%

## C=CC1(CCl)Nc2c([S+]([O-])CC)c(C#N)nn2-c2c(Cl)cc(C(F)(F)F)cc21 (stereo not shown) [Compound C17]
[1]; [5]
  mortality at 100 ppm: 15%
[1]; [6]
  mortality at 100 ppm: 68%
[2]
  mortality at 500 ppm: 88%
[3]
  mortality at 500 ppm: 89%
[4]
  mortality at 500 ppm: 100%

## COC(=O)CC1Nc2c([S+]([O-])C(F)(F)F)c(C(F)(F)F)nn2-c2c(Cl)cc(C(F)(F)F)cc21 (stereo not drawn) [d-98]
[1]; 24 h
  Solenopsis invicta Mortality (%) 24 h: 20%
[1]; 72 h
  Solenopsis invicta Mortality (%) 72 h: 99%
[2]
  Plutella xylostella Mortality (%): 100%
[3]
  Spodoptera exigua Mortality (%): 100%
[4]
  Aphis craccivora Mortality (%): 100%

## COC(=O)C1(CC#N)Nc2c([S+](C)[O-])c(C(C)=O)nn2-c2c(Cl)cc(C(F)(F)F)cc21 (stereo not shown) [Compound C44]
[1]; [5]
  mortality at 100 ppm: 36%
[1]; [6]
  mortality at 100 ppm: 90%
[2]
  mortality at 500 ppm: 90%
[3]
  mortality at 500 ppm: 100%
[4]
  mortality at 500 ppm: 100%

## N#Cc1nn2c(c1[S+]([O-])C(F)(F)F)NC(C(=O)C(F)(F)F)c1cc(C(F)(F)F)cc(Cl)c1-2 (stereo not drawn) [d-81]
[1]; 24 h
  Solenopsis invicta Mortality (%) 24 h: 35%
[1]; 72 h
  Solenopsis invicta Mortality (%) 72 h: 100%
[2]
  Plutella xylostella Mortality (%): 99%
[3]
  Spodoptera exigua Mortality (%): 90%
[4]
  Aphis craccivora Mortality (%): 100%

## N#Cc1nn2c(c1[S+]([O-])C(F)(F)F)NC(CC(F)(F)F)c1cc(C(F)(F)F)cc(Cl)c1-2 (stereo not drawn) [d-85]
[1]; 24 h
  Solenopsis invicta Mortality (%) 24 h: 30%
[1]; 72 h
  Solenopsis invicta Mortality (%) 72 h: 100%
[2]
  Plutella xylostella Mortality (%): 100%
[3]
  Spodoptera exigua Mortality (%): 100%
[4]
  Aphis craccivora Mortality (%): 100%

## C=CC1(CCl)Nc2c(Br)c(C#N)nn2-c2c(Cl)cc(C(F)(F)F)cc21 (stereo not shown) [Compound C5]
[1]; [5]
  mortality at 100 ppm: 34%
[1]; [6]
  mortality at 100 ppm: 100%
[2]
  mortality at 500 ppm: 100%
[3]
  mortality at 500 ppm: 100%
[4]
  mortality at 500 ppm: 100%

## 9-chloro-2-cyano-3-cyclohexanesulfinyl-5-(2′2-dimethoxy)-7-trifluoromethyl-4,5-dihydropyrazole[1,5-α]quinazoline-5-methyl formate [d-12]
[1]; 24 h
  Solenopsis invicta Mortality (%) 24 h: 20%
[1]; 72 h
  Solenopsis invicta Mortality (%) 72 h: 100%
[2]
  Plutella xylostella Mortality (%): 86%
[3]
  Spodoptera exigua Mortality (%): 96%
[4]
  Aphis craccivora Mortality (%): 100%

## CNC(=O)C1Nc2c([S+]([O-])C(F)(F)F)c(C(F)(F)F)nn2-c2c(Cl)cc(C(F)(F)F)cc21 (stereo not drawn) [d-109]
[1]; 24 h
  Solenopsis invicta Mortality (%) 24 h: 28%
[1]; 72 h
  Solenopsis invicta Mortality (%) 72 h: 85%
[2]
  Plutella xylostella Mortality (%): 96%
[3]
  Spodoptera exigua Mortality (%): 85%
[4]
  Aphis craccivora Mortality (%): 99%

## COC(=O)CC1Nc2c([S+]([O-])C(F)(F)F)c(C(F)(F)F)nn2-c2ncc(C(F)(F)F)cc21 (stereo not shown) [a-88]
[1]; 24 h
  Solenopsis invicta Mortality (%) 100 ppm 24 h: 34%
[1]; 72 h
  Solenopsis invicta Mortality (%) 100 ppm 72 h: 100%
[2]
  Plutella xylostella Mortality (%) 500 ppm: 100%
[3]
  Spodoptera exigua Mortality (%) 500 ppm: 100%
[4]
  Aphis craccivora Mortality (%) 500 ppm: 100%

## N#Cc1nn2c(c1OC(F)(F)F)NC(C(=O)C(F)(F)F)c1cc(C(F)(F)F)cc(Cl)c1-2 (stereo not drawn) [d-127]
[1]; 24 h
  Solenopsis invicta Mortality (%) 24 h: 20%
[1]; 72 h
  Solenopsis invicta Mortality (%) 72 h: 97%
[2]
  Plutella xylostella Mortality (%): 96%
[3]
  Spodoptera exigua Mortality (%): 100%
[4]
  Aphis craccivora Mortality (%): 100%

## N#Cc1nn2c(c1OC(F)(F)F)NC(CC(=O)C(F)(F)F)c1c(Cl)cncc1-2 (stereo not shown) [b-116]
[1]; 24 h
  Solenopsis invicta Mortality (%) 24 h: 20%
[1]; 72 h
  Solenopsis invicta Mortality (%) 72 h: 100%
[2]
  Plutella xylostella Mortality (%): 100%
[3]
  Spodoptera exigua Mortality (%): 98%
[4]
  Aphis craccivora Mortality (%): 100%

## N#Cc1nn2c(c1[S+]([O-])C(F)(F)F)NC(Cc1ccccc1)(C(=O)C(F)(F)F)c1c(Cl)cc(C(F)(F)F)cc1-2 (stereo not shown) [c-36]
[1]; 24 h
  Solenopsis invicta Mortality (%) 24 h: 21%
[1]; 72 h
  Solenopsis invicta Mortality (%) 72 h: 100%
[2]
  Plutella xylostella Mortality (%): 92%
[3]
  Spodoptera exigua Mortality (%): 90%
[4]
  Aphis craccivora Mortality (%): 95%
